Patent US20040242697A1, “Methods of reducing pests by use of iodoacetic acid, bromoacetic acid, 2-iodoacetamide, or 2-bromoacetamide” (priority 2003, published 2004)

Tests used:
[1] = system: Fusarium oxysporum f. sp. lycopersici (isolate FP-7); assay: Fusarium petri plate (PDA) assay, radial growth; assay type: cell-based; conditions: for fungal growth elimination compared with Benlate control: PDA-based assay
Procedure: (§1) The suspension was then standardized using a Beckman spectrophotometer (430 nm), which has been calibrated using a CDB blank. […] Suspensions were incubated for 24 hr at 28° C. A 10% stock solution of MTT was then added to each aliquot. The suspensions were allowed to incubate for 4 hr, then pelleted, drained, rinsed, and treated with 95% ethanol. The color change, which correlates with spore viability, was assessed using the Beckman spectrophotometer (570 nm), calibrated with 95% ethanol. Benlate (benomyl) was used as an industry standard control. Each treatment was replicated six times and the assay for each compound was repeated. […] A mycelial plug of (cork bore size #3) Fusarium oxysporum f. sp. lycopersici (isolate FP-7) from a 7-day old culture was placed at the center of the plate and the radial growth of the fungus was measured for 7-10 days. Each treatment was replicated six times and the assay for each compound was repeated. Regression analysis was performed using Sigma Plot 2000.
(§2) The tetrazolium assay is based on a color change produced with a vital stain on living tissue, i.e. the lower the absorbance, the fewer viable cells.

[2] = system: nutsedge (Cyperus esculentus and C. rotundus); assay: Field study, weed biomass emerging through the plastic mulch; assay type: in vivo; conditions: pre-plant, tomato field, Florida
[3] = system: native weed population (weeds in the plant hole); assay: Field study, weed biomass emerging in the planting hole; assay type: in vivo; conditions: pre-plant, tomato field, Florida
[4] = system: root knot nematode Meloidogyne sp.; assay: Field study, root knot nematode root galling on tomato; assay type: in vivo; conditions: 600 and 800 lb per acre, assessed at harvest; population unevenly distributed
[5] = system: Fusarium oxysporum f. sp. lycopersici (isolate FP-7) spores; assay: Fusarium tetrazolium (MTT) spore viability assay; assay type: cell-based; conditions: for concentration giving elimination of viable cells: 24 hr exposure, absorbance at 570 nm; for cell viability result compared with Benlate control: tetrazolium cell viability test
Procedure: as §1, §2

[6] = system: purple nutsedge (Cyperus rotundus) tubers; assay: Nutsedge greenhouse assay, soil drench on tubers in pots; assay type: in vivo; conditions: 100 ml soil drench, tarped 7 days, shoots counted 60 days
Procedure: Herbicide Screen: Each candidate compound was tested on seeds of smooth pigweed (Amaranthus hybridus) and barnyard grass (Echinocloa crus-galli), and on tubers of purple nutsedge (Cyperus rotundus) by exposing seeds or tubers to a specific concentration of the test compound. Seeds were surface sterilized and 20 seeds placed on sterile filter paper (Whatman #5) in a 10-cm petri plate for each of six replicates for each weed species tested. Twenty ml of compound of concentrations ranging from 0 ppm (sterile water control) to 2000 ppm was added to the petri dishes. Plates were stored at 30° C. in an dark incubator. Seed germination was monitored at 24 hr intervals for 30 days. Petri plate bioassays were repeated twice for each compound. Field collected purple nutsedge tubers were placed in 500 g of field soil with soil moisture adjusted to 5%. Five nutsedge tubers were planted in each 10-cm pot at a depth of 2.5 cm. Six replicate pots of each concentration, ranging from 0 ppm (water control) to 2000 ppm, will be treated using 100 ml as a soil drench. Pots were tarped with co-extruded black-on-white polyethylene mulch for 7 days. After tarps were removed, the number of emerged nutsedge shoots was recorded on a weekly basis for 60 days.

Row | SMILES | fungal growth elimination compared with Benlate control [1] | concentration giving elimination of viable cells [5] | cell viability result compared with Benlate control [5] | further results
1 | O=C(O)CBr [bromoacetic acid] | significantly better than the Benlate control |  |  | control of nutsedge emerging through the plastic versus methyl bromide ([2]; 600 lb per acre): as effective as methyl bromide; control of nutsedge emerging through the plastic (fresh and dry weight) versus methyl bromide ([2]; 800 lb per acre): as effective as methyl bromide; control of weeds in the plant hole versus methyl bromide ([3]; 600 lb per acre): not as effective; control of weeds emerging in the plant hole (fresh and dry weight) versus methyl bromide ([3]; 800 lb per acre): as effective as methyl bromide; root knot nematode control (root galling, scale 0-10) versus untreated check [4]: not statistically significantly different from the untreated check
2 | CCCCNC(=O)n1c(NC(=O)OC)nc2ccccc21 [Benlate, benomyl, reference compound] |  | 100 ppm |  | 
3 | NC(=O)CBr [bromoacetamide, 2-bromoacetamide] | significantly better than the Benlate control | 100 ppm | comparable to a Benlate control | concentration eliminating germination of nutsedge [6]: ≥ 1000 ppm
4 | O=C(O)CI [iodoacetic acid] | comparable to the Benalte control |  |  | concentration at which fungal growth was eliminated ([1]; compound in potato dextrose agar, radial growth measured 7-10 days): ≥ 500 ppm
5 | NC(=O)CI [iodoacetamide, 2-iodoacetamide] | significantly better than the Benlate control | 100 ppm | comparable to a Benlate control | 
